In article PMC9166630, “SAR Probing of KX2-391 Provided Analogues With Juxtaposed Activity Profile Against Major Oncogenic Kinases” (Frontiers in Oncology, 2022):

Experiments:
Format in all cases: biochemical
[1] = tested on: purified bovine tubulin; assay: Tubulin polymerization assay (turbidimetric); conditions: theoretical concentration 10 µM, OD 340 nm, 60 min
Method: The effect of compound 4e on tubulin polymerization was investigated using the cell-free assay which assesses the assembly of purified bovine tubulin by a turbidometric method (Figure 5). Tubulin polymerization results in increased turbidity, which is measured as an increase in the optical density (OD).
Figure 5 Tubulin polymerization assay for compound 4e at 10 µM compared to paclitaxel (10 µM) and KX2-391 (10 µM) as references, while DMSO (1% v/v) was used as a vehicle control. Purified bovine tubulin and GTP were mixed in a 96-well plate. The polymerization reaction was initiated by warming the solution from 4°C to 37°C. The effect on tubulin assembly was monitored by measuring the optical density (OD) at 340 nm every 30 seconds over 60 min period. The results represent the mean for three separate experiments.
The assembly of purified bovine tubulin was monitored using the Tubulin Polymerization Assay kit, BK006 (Cytoskeleton Inc., Denver, CO, USA). The assay was carried out in accordance with the manufacturer’s instructions in the assay kit manual using the standard assay conditions. The values reported represent the average values from two independent assays. […] Therefore, tubulin assembly was monitored turbidimetrically at 340 nm at 37°C in a Spectramax 340 PC spectrophotometer (Molecular Devices, Sunnyvale, CA, USA). The absorbance was measured at 30 s intervals for 60 min.

[2] = molecular target: T1, EphA3 (Homo sapiens, UniProt P29320); assay: PamChip tyrosine kinase microarray, EphA3; conditions: 4e 0.1 µM, HL60 lysate
T1 construct: endogenous in cells; host or cells: HL60 lysate
T1 sequence (P29320 21-983): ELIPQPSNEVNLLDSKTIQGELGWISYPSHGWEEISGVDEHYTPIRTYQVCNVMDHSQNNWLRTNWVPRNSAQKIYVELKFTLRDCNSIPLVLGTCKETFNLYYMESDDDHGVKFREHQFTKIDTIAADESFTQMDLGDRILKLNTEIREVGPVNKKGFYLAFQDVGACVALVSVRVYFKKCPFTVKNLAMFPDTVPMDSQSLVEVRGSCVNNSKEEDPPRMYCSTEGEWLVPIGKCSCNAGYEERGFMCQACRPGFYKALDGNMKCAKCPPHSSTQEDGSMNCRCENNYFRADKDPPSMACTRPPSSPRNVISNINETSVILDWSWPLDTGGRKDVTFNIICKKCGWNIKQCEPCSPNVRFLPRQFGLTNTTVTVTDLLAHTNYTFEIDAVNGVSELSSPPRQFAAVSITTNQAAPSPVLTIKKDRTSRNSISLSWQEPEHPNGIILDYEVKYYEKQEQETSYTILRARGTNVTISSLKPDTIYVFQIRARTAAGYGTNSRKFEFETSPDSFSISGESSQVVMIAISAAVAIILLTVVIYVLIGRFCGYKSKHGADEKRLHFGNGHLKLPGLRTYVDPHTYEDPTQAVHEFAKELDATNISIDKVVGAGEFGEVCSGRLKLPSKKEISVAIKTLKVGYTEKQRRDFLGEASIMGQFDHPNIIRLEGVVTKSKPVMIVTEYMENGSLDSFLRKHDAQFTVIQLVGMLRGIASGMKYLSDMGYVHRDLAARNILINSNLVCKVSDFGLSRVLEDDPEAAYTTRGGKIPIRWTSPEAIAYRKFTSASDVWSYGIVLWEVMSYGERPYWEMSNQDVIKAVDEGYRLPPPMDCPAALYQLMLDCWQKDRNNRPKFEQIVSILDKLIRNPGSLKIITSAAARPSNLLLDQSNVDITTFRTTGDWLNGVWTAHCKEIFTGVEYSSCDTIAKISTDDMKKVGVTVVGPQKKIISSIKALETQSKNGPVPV
Method: (§1) The changes in kinase activities induced by treatment with 4e were monitored within the HL60 cell lines using PamGene’s (Hertogenbosch, Netherlands) PamChip® peptide microarray profiler, which quantifies the activities of 144 tyrosine kinases (YK) ([29], [30]) (Figure 7). Results are provided as a log fold change (LFC) heatmap and Mean Kinase Statistic. From the LFC it is apparent that compound 4e, at a concentration of 0.1 µM, induced sizable changes to the activity of several kinases within the cell signaling YK profile (Figure 7A).
(§2) An Upstream Kinase tool was used to generate a putative list of kinases responsible for phosphorylating the phospho-sites on the PamChip (Figure 7B) ([31]). It is an interpretation and is highly dependent on the contents of the underlying phosphorylation databases. A Kinase Score was used for ranking kinases based on their significance and specificity in terms of the set of peptides used for the corresponding kinase. Kinase Statistics indicates the overall change of the peptide set that represents the kinase. Kinase statistics value <0 indicates lower kinase activity in the compound spiked lysate and vice versa ([32], [33]). Table 5 lists the 20 most changed kinases within treated HL60 cell lysates by 0.1 μM 4e, ranked according to their Kinase Score.
(§3) The compound 4e was spiked into HL60 cell lysate at different concentrations (0.001, 0.01, 0.1, 1, 10 and 50 μM). In addition, DMSO was also spiked in HL60 lysate at low concentration (2% v/v) as control. Samples were profiled on PamGene’s Tyrosine Kinase (PTK) arrays in technical replicates, covering a total of 196 phosphorylation sites. Frozen HL60 cultured cell pellet was sent to PamGene. At PamGene, cells were lysed using a lysis buffer and proteases inhibitors cocktail. Protein concentration was measured using standard Bradford assay as per PamGene SOPs. These lysates were further used for generating the PTK activity profiles. For spiking, 4e was received as powder form and dissolved in DMSO at PamGene facility followed by storing at -20°C in small aliquots. PamGene used its in-house bioinformatics toolbox in combination with other methods to generate hypotheses of signaling pathways.

[3] = molecular target: T2, Ret (Homo sapiens, UniProt P07949); assay: PamChip tyrosine kinase microarray, Ret; conditions: 4e 0.1 µM, HL60 lysate
T2 construct: endogenous in cells; host or cells: HL60 lysate
Method: as §1, §2, §3

T2 sequence (P07949 29-1114): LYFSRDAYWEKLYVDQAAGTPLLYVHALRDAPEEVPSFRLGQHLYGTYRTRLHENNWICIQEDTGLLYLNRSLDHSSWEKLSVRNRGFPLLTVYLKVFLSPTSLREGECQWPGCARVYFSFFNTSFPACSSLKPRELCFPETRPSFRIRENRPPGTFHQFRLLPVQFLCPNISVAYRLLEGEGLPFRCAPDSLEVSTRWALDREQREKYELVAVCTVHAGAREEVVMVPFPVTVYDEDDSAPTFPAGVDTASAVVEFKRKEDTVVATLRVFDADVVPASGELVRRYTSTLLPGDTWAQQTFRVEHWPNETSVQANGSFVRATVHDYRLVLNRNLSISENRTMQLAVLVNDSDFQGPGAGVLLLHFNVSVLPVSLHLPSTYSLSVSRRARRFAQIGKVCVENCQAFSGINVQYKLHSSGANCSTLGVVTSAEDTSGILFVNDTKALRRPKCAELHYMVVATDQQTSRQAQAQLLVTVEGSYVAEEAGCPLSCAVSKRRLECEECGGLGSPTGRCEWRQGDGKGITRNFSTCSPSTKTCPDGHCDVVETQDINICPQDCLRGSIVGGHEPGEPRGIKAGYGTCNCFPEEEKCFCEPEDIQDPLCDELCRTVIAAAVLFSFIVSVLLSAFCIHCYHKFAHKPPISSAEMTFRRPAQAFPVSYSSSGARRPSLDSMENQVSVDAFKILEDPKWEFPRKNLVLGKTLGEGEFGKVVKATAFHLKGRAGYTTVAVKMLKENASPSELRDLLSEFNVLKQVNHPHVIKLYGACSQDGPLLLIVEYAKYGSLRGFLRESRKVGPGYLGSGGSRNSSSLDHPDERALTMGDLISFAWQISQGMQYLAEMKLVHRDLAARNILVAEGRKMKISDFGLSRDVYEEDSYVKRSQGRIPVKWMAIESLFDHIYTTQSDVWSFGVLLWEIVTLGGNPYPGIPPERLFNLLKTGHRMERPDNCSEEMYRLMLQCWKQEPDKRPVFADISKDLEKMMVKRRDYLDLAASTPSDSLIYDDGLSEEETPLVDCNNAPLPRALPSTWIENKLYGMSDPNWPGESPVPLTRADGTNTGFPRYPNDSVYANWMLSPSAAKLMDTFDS

`O=C(Cc1ccc(NC(=O)c2cccc(Cl)c2)cc1)NCc1ccccc1` [Compound 4e, N-(4-(2-(benzylamino)-2-oxoethyl)phenyl)-3-chlorobenzamide] was tested, and the “effect on tubulin polymerization” value [1] was “did not affect the tubulin polymerization”, the “Mean Final Score” value [2] was 1.9564 and the “Mean Kinase Statistic” value [2] was -0.6074. For the same compound, the “Mean Significance Score” value [2] was 1.4547, the “Mean Specificity Score” value [2] was 0.5017 and the “Mean Final Score” value [3] was 2.3893. The “Mean Kinase Statistic” value [3] was -0.7112, the “Mean Significance Score” value [3] was 1.0953 and the “Mean Specificity Score” value [3] was 1.2940.
